Test results from ChEMBL document CHEMBL4665668, “Design and development of molecular hybrids of 2-pyridylpiperazine and 5-phenyl-1,3,4-oxadiazoles as potential multifunctional agents to treat Alzheimer's disease” (Eur J Med Chem, 2019).
Activity calls are given as the source filed them. The rule behind the calls is not given here.

Key:
[1] = target: T1, Acetylcholinesterase (Homo sapiens, UniProt P22303); assay: Inhibition of human erythrocytes AChE using acetylthiocholine iodide as substrate preincubated for 10 mins followed by substrate addition by Ellman's method; type: tissue-based, Erythrocyte
T1 sequence (P22303 whole entry): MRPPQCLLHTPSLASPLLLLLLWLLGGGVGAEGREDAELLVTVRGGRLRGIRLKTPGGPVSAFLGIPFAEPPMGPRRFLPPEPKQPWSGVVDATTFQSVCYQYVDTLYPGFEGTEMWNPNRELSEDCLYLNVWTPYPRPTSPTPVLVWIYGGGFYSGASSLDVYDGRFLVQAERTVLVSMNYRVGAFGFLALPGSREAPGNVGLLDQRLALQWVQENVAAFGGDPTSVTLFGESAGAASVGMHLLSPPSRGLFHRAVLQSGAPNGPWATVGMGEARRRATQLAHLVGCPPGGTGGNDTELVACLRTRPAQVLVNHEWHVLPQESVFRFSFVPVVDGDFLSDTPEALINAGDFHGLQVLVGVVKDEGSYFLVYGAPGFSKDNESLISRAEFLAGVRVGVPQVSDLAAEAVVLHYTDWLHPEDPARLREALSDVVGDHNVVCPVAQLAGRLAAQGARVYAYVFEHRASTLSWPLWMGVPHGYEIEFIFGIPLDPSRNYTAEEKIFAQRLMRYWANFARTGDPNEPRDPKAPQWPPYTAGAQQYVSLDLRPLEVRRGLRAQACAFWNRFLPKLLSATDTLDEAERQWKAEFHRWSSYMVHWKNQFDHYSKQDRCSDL

[2] = target: Beta-secretase 1 (Homo sapiens, UniProt P56817); assay: Inhibition of human BACE-1 using MOCA-SEV-NL-DAEFR-DNP-RR as substrate preincubated with substrate followed by enzyme addition by FRET assay
Sequence of Beta-secretase 1 (P56817 whole entry): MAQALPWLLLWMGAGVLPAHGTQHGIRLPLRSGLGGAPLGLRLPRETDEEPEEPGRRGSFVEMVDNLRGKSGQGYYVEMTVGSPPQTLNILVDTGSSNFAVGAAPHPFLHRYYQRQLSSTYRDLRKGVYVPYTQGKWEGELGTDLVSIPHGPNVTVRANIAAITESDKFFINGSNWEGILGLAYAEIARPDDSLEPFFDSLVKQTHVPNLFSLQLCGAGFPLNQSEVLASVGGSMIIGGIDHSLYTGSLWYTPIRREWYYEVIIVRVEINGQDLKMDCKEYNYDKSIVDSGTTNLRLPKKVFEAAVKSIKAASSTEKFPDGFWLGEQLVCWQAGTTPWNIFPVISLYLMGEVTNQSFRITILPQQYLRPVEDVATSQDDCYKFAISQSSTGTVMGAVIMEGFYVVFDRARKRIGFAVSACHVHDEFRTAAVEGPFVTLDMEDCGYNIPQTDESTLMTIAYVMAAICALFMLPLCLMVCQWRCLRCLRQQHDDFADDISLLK

[3] = target: Cholinesterase (Homo sapiens, UniProt P06276); assay: Inhibition of human serum BChE using butyrylthiocholine iodide as substrate preincubated for 10 mins followed by substrate addition by Ellman's method; type: cell-free
Sequence of Cholinesterase (P06276 whole entry): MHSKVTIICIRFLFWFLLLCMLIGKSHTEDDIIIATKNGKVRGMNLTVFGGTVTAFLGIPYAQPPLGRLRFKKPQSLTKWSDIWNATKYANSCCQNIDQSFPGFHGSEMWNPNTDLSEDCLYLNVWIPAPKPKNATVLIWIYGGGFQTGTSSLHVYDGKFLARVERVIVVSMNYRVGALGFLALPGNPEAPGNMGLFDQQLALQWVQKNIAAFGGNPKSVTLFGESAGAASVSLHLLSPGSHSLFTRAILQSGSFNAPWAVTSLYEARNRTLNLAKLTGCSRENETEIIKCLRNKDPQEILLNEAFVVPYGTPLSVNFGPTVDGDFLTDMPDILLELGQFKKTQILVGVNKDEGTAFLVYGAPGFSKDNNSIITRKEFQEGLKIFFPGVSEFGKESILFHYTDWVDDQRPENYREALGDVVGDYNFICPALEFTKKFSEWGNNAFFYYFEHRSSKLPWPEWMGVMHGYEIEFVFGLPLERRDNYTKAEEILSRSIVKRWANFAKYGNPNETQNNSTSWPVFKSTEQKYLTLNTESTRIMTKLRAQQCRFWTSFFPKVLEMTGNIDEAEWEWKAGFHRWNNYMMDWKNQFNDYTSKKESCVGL

[4] = species on record: Rattus norvegicus; conditions: Wistar, dose 5.0 mg/kg, time 7.0 day
[5] = target: Amyloid-beta precursor protein (Homo sapiens) (UniProt P05067); conditions: dose microM 5-20, time 48.0 hrs
Sequence of Amyloid-beta precursor protein (Homo sapiens) (P05067 whole entry, the tested form may be a part): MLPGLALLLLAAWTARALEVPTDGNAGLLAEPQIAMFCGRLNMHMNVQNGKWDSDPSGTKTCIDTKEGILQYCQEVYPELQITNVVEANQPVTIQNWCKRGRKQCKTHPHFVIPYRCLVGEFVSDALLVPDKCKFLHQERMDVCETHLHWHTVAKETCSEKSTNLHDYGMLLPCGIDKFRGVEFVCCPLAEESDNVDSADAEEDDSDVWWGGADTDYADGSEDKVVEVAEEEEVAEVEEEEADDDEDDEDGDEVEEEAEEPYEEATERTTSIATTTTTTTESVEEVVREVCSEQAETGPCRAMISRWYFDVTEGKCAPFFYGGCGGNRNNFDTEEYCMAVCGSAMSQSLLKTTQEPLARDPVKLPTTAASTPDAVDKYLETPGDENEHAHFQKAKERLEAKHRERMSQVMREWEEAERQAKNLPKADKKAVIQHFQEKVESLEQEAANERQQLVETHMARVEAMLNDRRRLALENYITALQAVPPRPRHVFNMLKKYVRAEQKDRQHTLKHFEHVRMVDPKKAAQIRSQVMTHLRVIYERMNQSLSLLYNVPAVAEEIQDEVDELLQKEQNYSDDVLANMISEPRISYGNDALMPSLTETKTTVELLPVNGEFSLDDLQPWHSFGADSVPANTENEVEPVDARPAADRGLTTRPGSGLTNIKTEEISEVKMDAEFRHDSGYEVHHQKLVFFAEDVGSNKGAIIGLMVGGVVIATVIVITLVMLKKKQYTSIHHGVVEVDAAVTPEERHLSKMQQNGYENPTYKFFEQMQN

[6] = test system: Rattus norvegicus; assay: (§1) Improvement in learning and spatial memory in icv infused amyloid beta (1 to 42)-induced rat model of Alzheimer's disease assessed as reduction in escape latency at 5 mg/kg, po administered daily for 7 days starting from 7 days post surgery and measured daily for 5 days by Morris water maze test; type: functional, organism-based; conditions: time 12.0 day
[7] = test system: Rattus norvegicus; assay: as §1, with “increase” for “reduction”, “number of platform crossing” for “escape latency”, “after 6” for “daily for 5”; type: functional, organism-based; conditions: time 13.0 day
[8] = test system: Rattus norvegicus; assay: Cognitive enhancing effect in scopolamine-induced Wistar rat model of amnesia assessed as increase in spontaneous alteration at 10 mg/kg, po pretreated for 7 days followed by scopolamine challenge and measured after 30 mins by Y-maze test; type: functional, organism-based; conditions: time 7.0 day
[9] = Acute toxicity in Wistar rat assessed as abnormal signs at 100 to 500 mg/kg, po measured up to 14 days by OCED guideline method; type: organism-based; conditions: in vivo, 336 h, dose 100-500 mg/kg, time 14 day
[10] = Acute toxicity in po dosed Wistar rat assessed as maximum tolerated dose by OCED guideline method; type: organism-based; conditions: in vivo
[11] = Permeability of the compound in PBS/EtOH buffer (7:3) at 25 ug/ml after 18 hrs by PAMPA-BBB assay
[12] = target: T1, Acetylcholinesterase; conditions: dose microM 5-20, time 48.0 hrs
[13] = test system: Rattus norvegicus; assay: Cognitive enhancing effect in po dosed scopolamine-induced Wistar rat model of amnesia assessed as increase in spontaneous alteration pretreated for 7 days followed by scopolamine challenge and measured after 30 mins by Y-maze test; type: functional, organism-based; conditions: dose mg/kg 2.5-10, time 7.0 day
[14] = test system: SH-SY5Y; assay: Neuroprotective activity against amyloid beta (1 to 42)-induced oxidative stress in human SH-SY5Y cells assessed as effect on cell viability at 10 to 80 uM measured after 24 hrs by MTT assay (reference value: 61 %); type: functional; conditions: dose microM 10-80
[15] = AUC (0 to 24 hrs) in Wistar rat at 10 mg/kg, po measured up to 72 hrs by HPLC analysis; type: ADME, organism-based; design: route oral, dose 10 mg/kg, time 72 hrs; conditions: in vivo
[16] = target: Amyloid-beta precursor protein (Homo sapiens) (UniProt P05067); assay: Inhibition of amyloid beta (unknown origin) self aggregation assessed as roughness index at 10 uM after 10 days by atomic force microscopy; conditions: time 10.0 day
[17] = target: T1, Acetylcholinesterase; assay: Mixed type inhibition of human erythrocytes AChE assessed as increase in Km using varying levels of acetylthiocholine iodide substrate by Lineweaver-Burk plot analysis; type: tissue-based; conditions: Erythrocyte
[18] = test system: Rattus norvegicus; assay: Cognitive enhancing effect in scopolamine-induced Wistar rat model of amnesia assessed as increase in spontaneous alteration at 5 to 10 mg/kg, po pretreated for 7 days followed by scopolamine challenge and measured after 30 mins by Y-maze test; type: functional, organism-based; conditions: dose mg/kg 5-10, time 7.0 day
[19] = test system: Rattus norvegicus; assay: as §1, with “increase” for “reduction”, “number of platform crossing” for “escape latency”, “10” for “5”, “after 6” for “daily for 5”; type: functional, organism-based; conditions: time 13.0 day
[20] = target: T1, Acetylcholinesterase; assay: Mixed type inhibition of human erythrocytes AChE assessed as decrease in Vmax using varying levels of acetylthiocholine iodide substrate by Lineweaver-Burk plot analysis; conditions: Erythrocyte
[21] = test system: Rattus norvegicus; assay: Antioxidant activity in scopolamine-induced Wistar rat model of amnesia assessed as decrease in MDA level at 2.5 to 10 mg/kg, po pretreated for 7 days followed by scopolamine challenge and measured after 30 mins […]; type: functional, organism-based; conditions: dose mg/kg 2.5-10, time 7.0 day
[22] = test system: Rattus norvegicus; assay: Improvement in learning and spatial memory in icv infused amyloid beta (1 to 42)-induced rat model of Alzheimer's disease assessed as reduction in escape latency at 10 mg/kg, po administered daily for 7 days starting from 7 days post surgery and measured daily for 5 days by Morris water maze test; type: functional, organism-based; conditions: time 12.0 day
[23] = test system: Rattus norvegicus; assay: Antioxidant activity in scopolamine-induced Wistar rat model of amnesia assessed as increase in SOD level at 2.5 to 10 mg/kg, po pretreated for 7 days followed by scopolamine challenge and measured after 30 mins […]; type: functional, organism-based; conditions: dose mg/kg 2.5-10, time 7.0 day
[24] = target: T1, Acetylcholinesterase; assay: Mixed type inhibition of human erythrocytes AChE using varying levels of acetylthiocholine iodide substrate by Dixon plot analysis; type: tissue-based, Erythrocyte
[25] = target: Amyloid-beta precursor protein (Homo sapiens) (UniProt P05067); assay: Inhibition of amyloid beta (1 to […]) (unknown origin) self-induced aggregation after 48 hrs by Thioflavin T based fluorometric assay; conditions: dose microM 5-20, time 48.0 hrs
[26] = Half life in Wistar rat at 10 mg/kg, po measured up to 72 hrs by HPLC analysis; type: ADME, organism-based; conditions: in vivo
[27] = test system: Rattus norvegicus; assay: Ex vivo inhibition of AChE in brain of scopolamine-induced Wistar rat model of amnesia at 5 to 10 mg/kg, po pretreated for 7 days followed by scopolamine challenge and measured after 30 mins using acetylthiocholine iodide as substrate by Ellman's method; type: functional, organism-based; conditions: dose mg/kg 5-10, time 7.0 day
[28] = target: Amyloid-beta precursor protein (Homo sapiens) (UniProt P05067); assay: Inhibition of amyloid beta (unknown origin) self aggregation assessed as maximum peak height at 10 uM after 10 days by atomic force microscopy; conditions: time 10.0 day
[29] = Tmax in Wistar rat at 10 mg/kg, po measured up to 72 hrs by HPLC analysis; type: ADME, organism-based; conditions: in vivo
[30] = MRT in Wistar rat at 10 mg/kg, po measured up to 72 hrs by HPLC analysis; type: ADME, organism-based; conditions: in vivo
[31] = Cmax in Wistar rat at 10 mg/kg, po measured up to 72 hrs by HPLC analysis; type: ADME, organism-based; design: route oral, time 72 hrs, dose 10 mg/kg; conditions: in vivo

Compound: Cc1ccc(/C=N/NC(=O)N2CCN(c3ccccn3)CC2)cc1
- IC50 [1]: 4780 nM
- IC50 [2]: 3920 nM
- IC50 [3]: > 10 µM

Compound: O=C(N/N=C/c1ccc(F)cc1)N1CCN(c2ccccn2)CC1
- IC50 [1]: 1870 nM
- IC50 [2]: 1240 nM
- IC50 [3]: 3.99 µM

Compound: O=C(N/N=C/c1ccc([N+](=O)[O-])cc1)N1CCN(c2ccccn2)CC1
- IC50 [1]: 1160 nM
- IC50 [2]: 2640 nM
- IC50 [3]: 4.02 µM

Compound: COc1cccc(/C=N/NC(=O)N2CCN(c3ccccn3)CC2)c1OC
- IC50 [1]: > 10000 nM
- IC50 [2]: 6820 nM
- IC50 [3]: > 10 µM

Compound: Oc1ccc(-c2nnc(N3CCN(c4ccccn4)CC3)o2)cc1
- IC50 [1]: 1180 nM
- IC50 [2]: 1780 nM
- IC50 [3]: 6.02 µM

Compound: COc1cc2c(cc1OC)C(=O)C(CC1CCN(Cc3ccccc3)CC1)C2 (configuration not stated)
- inhibition [4]: Active
- Flu intensity [5]: 0.31
- Activity [6]: Active
- Activity [7]: Active

Compound: Brc1ccc(-c2nnc(N3CCN(c4ccccn4)CC3)o2)cc1
- IC50 [1]: 74 nM
- Activity [8]: Active
- IC50 [2]: 126 nM
- Activity [9]: Non-Toxic
- IC50 [3]: 0.846 µM
- MTD [10]: 100 mg/kg
- Papp at 18 h, 25 ug/ml [11]: 5.9 ×10⁻⁶ cm/s
- Flu intensity [12]: 0.6
- Flu intensity [5]: 0.42
- Activity [13]: Dose-dependent effect
- Activity [14]: 63%

Compound: Fc1ccc(-c2nnc(N3CCN(c4ccccn4)CC3)o2)c(F)c1
- AUC(0-t) at 72 h [15]: 721 ng·h/mL
- Activity [16]: 1.84 nm
- Activity [9]: Non-Toxic
- inhibition [17]: Active
- Activity [18]: Active
- IC50 [3]: 0.787 µM
- MTD [10]: 100 mg/kg
- Activity [19]: Active
- inhibition [20]: Active
- Activity [21]: Active
- Activity [22]: Active
- Activity [23]: Active
- Ki [24]: 30 nM
- Papp at 18 h, 25 ug/ml [11]: 6.1 ×10⁻⁶ cm/s
- Flu intensity [12]: 0.33
- inhibition [25]: Active
- Flu intensity [5]: 0.3
- half-life [26]: 739 min
- Activity [13]: Dose-dependent effect
- inhibition [27]: Active
- Activity [28]: 44.2 nm
- Activity [14]: 69%
- Tmax [29]: 5.33 h
- MRT [30]: 18.4 h
- Cmax [31]: 49.8 ng/mL

Compound: O=C(N/N=C/c1ccccc1)N1CCN(c2ccccn2)CC1
- IC50 [1]: 3620 nM
- IC50 [2]: 7690 nM
- IC50 [3]: 4.22 µM

Compound: O=C(N/N=C/c1ccc(Cl)cc1)N1CCN(c2ccccn2)CC1
- IC50 [1]: 3420 nM
- IC50 [2]: 2960 nM
- IC50 [3]: 4.82 µM

Compound: Cc1ccc(-c2nnc(N3CCN(c4ccccn4)CC3)o2)cc1
- IC50 [1]: 1020 nM
- IC50 [2]: 2480 nM
- IC50 [3]: > 10 µM

Compound: Oc1ccccc1-c1nnc(N2CCN(c3ccccn3)CC2)o1
- IC50 [1]: 1230 nM
- IC50 [2]: 2230 nM
- IC50 [3]: 8.22 µM

Compound: O=C(N/N=C/c1ccc(F)cc1F)N1CCN(c2ccccn2)CC1
- IC50 [1]: 682 nM
- IC50 [2]: 446 nM
- IC50 [3]: 3.97 µM
- Papp at 18 h, 25 ug/ml [11]: 4.1 ×10⁻⁶ cm/s

Compound: Cc1cccc(/C=N/NC(=O)N2CCN(c3ccccn3)CC2)c1
- IC50 [1]: > 10000 nM
- IC50 [2]: 4370 nM
- IC50 [3]: > 10 µM

Compound: Fc1ccc(-c2nnc(N3CCN(c4ccccn4)CC3)o2)cc1
- IC50 [1]: 136 nM
- IC50 [2]: 1480 nM
- IC50 [3]: 1.22 µM
